Peptide text beside a SMILES is read from it.
How the values were obtained:
SIRT3 = SIRT3 transcription, semi-quantitative RT-PCR in human epidermal progenitors; type: cell-based; conditions: 72 h
Description: Human neonatal epidermal progenitors (Thermo Fisher Scientific, NY) were seeded in 6-well plates at a density of 2×10^5 cells/well. Each well received 2 ml of Epilife media containing 60 μM calcium chloride (Thermo Fisher Scientific, NY). Plates were incubated in a humidified chamber at 37 degrees Celsius and 5 percent CO2. Twenty-four hours later, cells were treated with various concentrations of oxyresveratrol or decapeptide-12 dissolved in PBS containing 5 percent DMSO. Control wells received vehicle only (5 percent DMSO and PBS). Final concentration of DMSO in each well was 0.05 percent.
After a 72 hour incubation period, cells were trypsinized and total RNA extracted, using RNeasy kit (Qiagen, Valencia, Calif.) according to the manufacturer's protocol.
RNA concentration was determined using nanodrop (Thermo fisher scientific, NY). Two μg of total RNA were used to synthesize cDNA using oligo dT primers and TaqMan reverse transcription reagents (Thermo fisher scientific, NY). The reaction was carried out in DNA Engine Peltier Thermal Cycler (Bio-Rad, Hercules, Calif.). The annealing temperature was 25 degrees Celsius for 10 minutes, followed by first strand synthesis at 48 degrees Celsius for 1 hour, and heat inactivation at 95 degrees Celsius for 5 minutes.
The SIRT1-7 primers (table 1) were designed using Primer3. The semi-quantitative PCR reactions were performed on a DNA Engine Peltier Thermo Cycler (Bio-Rad, Hercules, Calif.). PCR was carried under the following conditions: denaturation at 94 degrees Celsius for 2 minutes and primer extension at 54 degrees Celsius for 30 seconds in 34 cycles for SIRT 1-7 and the housekeeping gene 18S.
Samples were run and resolved on a 1.5 percent agarose gel containing 0.5 μg/ml of ethidium bromide and imaged using the FluorChem HD2 Imaging System (Protein simple, San Jose, Calif.). Densitometry analysis was carried out using the AlphaEase FC software (Protein simple, San Jose, Calif.). Intensity ratios were calculated as the intensity value for each gene divided by the intensity value of the internal control gene 18S.
The effect of the decapeptides P4, P4A, P4B, and P4C upon the transcription levels of sirtuins 1-7 was evaluated. Table 4 summarizes transcription levels for all four decapeptides with the corresponding genes, at tested concentrations of: 10, 30, 50, 100, and 300 (all in μM).

[1] = MTT cell proliferation assay, fibroblasts; type: cell-based, human; conditions: human, MTT, 72 h, read-out: fibroblast proliferation rate after 72 hours
Description: Proliferation rates for three human cell lines (epidermal progenitors, melanoblasts, and fibroblasts) were determined using a TACS® MTT Cell Proliferation Kit. Cells were seeded at 2.5×10^4/well in 96-well plates in a humidified atmosphere with 5 percent CO2 at 37 degrees Celsius. Twenty-four hours later, the decapeptides were added to the corresponding wells at varying concentrations and incubated for 72 hours. The remainder of the procedure was performed following the manufacturer's protocol.

[2] = Trypan blue cell viability, 7 days, epidermal progenitors; type: cell-based; conditions: human, relative to control, read-out: epidermal progenitor viability after 7 days
Description: (§1) The effect of each of the decapeptides upon cell viability was also tested. In particular, cells were incubated with the decapeptide at various concentrations and then counted for viability relative to the control (untreated cells) using trypan blue. Cytotoxicity was measured according to the following formula:
(§2) [1−(# of cells in control−# of live cells in test sample)/# of cells in control]×100 percent.

[3] = Trypan blue cell viability, 7 days, melanoblasts; type: cell-based; conditions: human, relative to control, read-out: melanoblast viability after 7 days
Description: as §1, §2

Compound | SIRT3 transcription increase relative to control (SIRT3; 10 μM) [%] | SIRT3 transcription increase relative to control (SIRT3; 30 μM) [%] | SIRT3 transcription increase relative to control (SIRT3; 50 μM) [%] | SIRT3 transcription increase relative to control (SIRT3; 100 μM) [%] | SIRT3 transcription increase relative to control (SIRT3; 300 μM) [%] | viability at 72 h, 3 µM [1] [%] | viability at 72 h, 10 µM [1] [%] | viability at 72 h, 30 µM [1] [%] | viability at 72 h, 50 µM [1] [%] | viability at 72 h, 100 µM [1] [%] | viability at 72 h, 300 µM [1] [%] | viability at 72 h, 500 µM [1] [%] | viability at 72 h, 1000 µM [1] [%] | viability at 168 h, 3 µM [2] [%] | viability at 168 h, 10 µM [2] [%] | viability at 168 h, 30 µM [2] [%] | viability at 168 h, 50 µM [2] [%] | viability at 168 h, 100 µM [2] [%] | viability at 168 h, 300 µM [2] [%] | viability at 168 h, 500 µM [2] [%] | further results
CCCCCCCCCCCCCCCC(=O)N[C@@H](Cc1ccc(O)cc1)C(=O)N[C@@H](CCCNC(=N)N)C(=O)N[C@@H](CO)C(=O)N[C@@H](CCCNC(=N)N)C(=O)N[C@@H](CCCCN)C(=O)N[C@H](Cc1ccc(O)cc1)C(=O)N[C@@H](CO)C(=O)N[C@@H](CO)C(=O)N[C@@H](Cc1c[nH]c2ccccc12)C(=O)N[C@@H](Cc1ccc(O)cc1)C(N)=O [P4B, Palmitoyl-YRSRK[*Y]SSWY-amide] (HELM PEPTIDE1{[CCCCCCCCCCCCCCCC(=O)[*:2]].Y.R.S.R.K.[dY].S.S.W.Y.[am]}$$$$V2.0) | 22 ± 3 | 23 ± 2 | 28 ± 5 | 78 ± 10 | 142 ± 5 | 100 | 99 ± 1 | 99 ± 1 | 99 ± 1 | 98 ± 2 | 97 ± 2 | 96 ± 2 | 96 ± 2 | 100 | 99 ± 1 | 98.2 ± 1 | 98 ± 1 | 97 ± 1 | 96.5 ± 2 | 95.5 ± 2 | viability at 168 h, 1000 µM [2]: 94.5 ± 2%; viability at 168 h, 3 µM [3]: 100%; viability at 168 h, 10 µM [3]: 98.5 ± 1%; viability at 168 h, 30 µM [3]: 97.8 ± 3%; viability at 168 h, 50 µM [3]: 97.2 ± 2%; viability at 168 h, 100 µM [3]: 96.3 ± 2%; viability at 168 h, 300 µM [3]: 95.6 ± 2%; viability at 168 h, 500 µM [3]: 94.6 ± 2%; viability at 168 h, 1000 µM [3]: 93.8 ± 2%
Ac-YRSRKYSSWY-NH2 [P4C, Acetyl-YRSRKYSSWY-amide] | 8 ± 3 | 6 ± 2 | 45 ± 9 | 82 ± 8 | 159 ± 6 | 100 | 99 ± 1 | 99 ± 1 | 99 ± 1 | 98 ± 2 | 97 ± 2 | 96 ± 2 | 96 ± 2 | 100 | 99 ± 1 | 98 ± 1 | 97.4 ± 1 | 96.6 ± 2 | 95.7 ± 3 | 94.8 ± 3 | viability at 168 h, 1000 µM [2]: 94 ± 3%; viability at 168 h, 3 µM [3]: 100%; viability at 168 h, 10 µM [3]: 99 ± 1%; viability at 168 h, 30 µM [3]: 98.4 ± 1%; viability at 168 h, 50 µM [3]: 97.9 ± 1%; viability at 168 h, 100 µM [3]: 97 ± 2%; viability at 168 h, 300 µM [3]: 96 ± 3%; viability at 168 h, 500 µM [3]: 95.5 ± 3%; viability at 168 h, 1000 µM [3]: 94.8 ± 3%

— patent US20180296456A1, “Decapeptide-12 Modulation of Sirtuin Gene Expression in Epidermal Keratinocyte Progenitors” (Escape Therapeutics, Inc., priority 2017, published 2018)
